Measurements published in patent US6790865B2, “2-methylpropionic acid derivatives and pharmaceutical compositions comprising the same” (Kissei Pharmaceutical Co., Ltd., priority 1998, dated 2004).
Where a name gives a salt, the structure may show the parent alone.

Experiments:
β1-adrenoceptor = molecular target: T1, β1-adrenoceptor (Rattus norvegicus, UniProt P18090); assay: β1-adrenoceptor stimulating effects, isolated rat atria heart rate increase (Magnus method); format: cell-based; details: isolated male SD rat atria; 100% = heart rate increase after 10^−8M isoproterenol; read-out: EC50 (concentration producing 50% increase of heart rate)
T1 construct: Atria of male SD rats (250 to 400 g in body weight) were isolated; from tissue; host or cells: isolated atria of male SD rats
Experimental: Namely, atria of rats were isolated and preparations were made. The experiment was conducted according to the Magnus method. The increment of heart rate after the addition of isoproterenol (10^−8M) was expressed as 100%. The drug was added cumulatively. The β1-adrenoceptor stimulating effects were evaluated as the concentration of the drug required to produce 50% increase of heart rate (i.e., EC50 value).
The Experiment for Measuring β1-Adrenoceptor Stimulating Effects
Atria of male SD rats (250 to 400 g in body weight) were isolated and the experiment was conducted according to the Magnus method. The preparations with a tension of 0.5 g were exposed to Krebs-Henseleit solution maintained at 37° C. and gassed with a mixture of 95% oxygen and 5% carbon dioxide. The cardiac contractility was isometrically measured with a force-displacement transducer, and heart rate was recorded on a rectigram via a tachometer. The drug was added cumulatively. The drug efficacy was evaluated as the concentration of the drug required to produce 50% increase of heart rate per minute (i.e., EC50 value). In this experiment, increase of heart rate per minute after addition of 10^−8M of isoproterenol was expressed as 100%.

β2-adrenoceptor = molecular target: T2, β2-adrenoceptor (Rattus norvegicus, UniProt P10608); assay: β2-adrenoceptor stimulating effects, isolated pregnant rat uterus contraction inhibition (Magnus method); format: cell-based; details: isolated uteri of pregnant SD rats (pregnancy day 21); spontaneous contractions summed over 5 minutes; read-out: EC50 (concentration producing 50% inhibition of uterine contraction)
T2 construct: Uteri of pregnant SD rats (pregnancy day 21) were isolated; from tissue; host or cells: longitudinal uterine strips of pregnant SD rats (day 21)
Experimental: Also, uteri of pregnant rats were isolated and preparations were made. The experiment was conducted according to the Magnus method. The sum of uterine contractions during 5 minutes before the addition of the drug was expressed as 100%. The drug was added cumulatively. The β2-adrenoceptor stimulating effects were evaluated as the concentration of the drug required when the sum of the contractions during 5 minutes after the addition of the drug produces 50% decrease of the sum of the contractions during 5 minutes before the addition of the drug (i.e., EC50 value).
The Experiment for Measuring β2-Adrenoceptor Stimulating Effects
Uteri of pregnant SD rats (pregnancy day 21) were isolated and longitudinal strips of approximately 15 mm in length and approximately 5 mm in width free from the basal plate were prepared. The experiment was conducted according to the Magnus method. The preparations with a tension of 0.5 g were exposed to Locke-Ringer solution maintained at 37° C. and gassed with a mixture of 95% oxygen and 5% carbon dioxide. Spontaneous contractions of myometrium were isometrically measured with a force-displacement transducer and recorded on a rectigram. The drug was cumulatively added to the Magnus bath every 5 minutes. The drug efficacy was evaluated as the concentration of the drug required to produce 50% of the inhibition of uterine contraction (i.e., EC50 value) by comparing the sum of uterine contraction during 5 minutes after the addition of the drug with the sum of uterine contractions during 5 minutes before the addition of the drug which was expressed as 100%.

β3-adrenoceptor = β3-adrenoceptor (Mustela putorius furo, UniProt M3YEU4); assay: β3-adrenoceptor stimulating effects, isolated ferret urinary bladder smooth muscle relaxation (Magnus method); format: cell-based; details: isolated male ferret urinary bladder smooth muscle strips; 0% = maximal relaxation after 10^−5M forskolin; read-out: EC50 (concentration producing 50% decrease of urinary bladder tension)
Experimental: Namely, urinary bladders of ferrets were isolated and preparations were made. The experiment was conducted according to the Magnus method. The […] tension without the addition of the drug is expressed as 100%, and the tension of maximal relaxation after the addition of 10^−5M of forscolin was expressed as 0%. The drug was added cumulatively. The β3-adrenoceptor stimulating effects were evaluated as the concentration of the drug required to produce 50% decrease of the tension (i.e., EC50 value) (The Japanese Journal of Urology, Vol.89, No.2, p.272 (1998)).
The Experiment for Measuring β3-Adrenoceptor Stimulating Effects
Urinary bladders of male ferrets (1100 to 1400 g in body weight) were isolated and urinary bladder smooth muscle strips of approximately 10 mm in length and approximately 2 mm in width were prepared. The experiment was conducted according to the Magnus method. The preparations with a tension of 1 g were exposed to Krebs-Henseleit solution maintained at 37° C. and gassed with a mixture of 95% oxygen and 5% carbon dioxide. Basal tensions of urinary bladder were isometrically measured with a force-displacement transducer and recorded on a rectigram. […] In this experiment, tension of urinary bladder smooth muscle before the addition of the drug was expressed as 100% and tension of maximal relaxation after the addition of 10^−5M concentration of forskolin was expressed as 0%.

male ICR rats = assay: Acute toxicity test; format: in vivo
Description: Furthermore, the compounds represented by the above general formula (I) of the present invention are very safe compounds.

T2 sequence (P10608 whole entry): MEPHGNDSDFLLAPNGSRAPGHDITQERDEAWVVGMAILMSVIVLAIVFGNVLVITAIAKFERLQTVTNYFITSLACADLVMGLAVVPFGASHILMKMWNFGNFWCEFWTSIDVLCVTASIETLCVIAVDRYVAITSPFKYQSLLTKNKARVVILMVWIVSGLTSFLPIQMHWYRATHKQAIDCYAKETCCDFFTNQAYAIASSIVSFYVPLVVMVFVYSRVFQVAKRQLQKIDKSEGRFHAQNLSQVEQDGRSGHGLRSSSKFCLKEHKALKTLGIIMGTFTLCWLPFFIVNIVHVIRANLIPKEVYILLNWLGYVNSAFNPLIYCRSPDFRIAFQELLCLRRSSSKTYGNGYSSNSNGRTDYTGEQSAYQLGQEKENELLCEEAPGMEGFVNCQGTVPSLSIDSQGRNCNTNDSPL
T1 sequence (P18090 whole entry): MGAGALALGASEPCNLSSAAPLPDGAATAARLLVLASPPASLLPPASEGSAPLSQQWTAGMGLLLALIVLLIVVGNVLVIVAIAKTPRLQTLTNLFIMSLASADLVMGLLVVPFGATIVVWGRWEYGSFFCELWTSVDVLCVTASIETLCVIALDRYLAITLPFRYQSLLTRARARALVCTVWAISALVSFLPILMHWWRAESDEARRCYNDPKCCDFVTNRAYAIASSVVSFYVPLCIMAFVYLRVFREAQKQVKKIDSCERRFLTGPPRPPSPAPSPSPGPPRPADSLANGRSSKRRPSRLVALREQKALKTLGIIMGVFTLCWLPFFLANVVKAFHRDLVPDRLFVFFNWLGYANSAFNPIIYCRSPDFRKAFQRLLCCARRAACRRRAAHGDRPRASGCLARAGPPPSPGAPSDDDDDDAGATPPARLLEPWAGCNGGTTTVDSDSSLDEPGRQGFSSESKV
Chain of β3-adrenoceptor (M3YEU4 entry or part of it): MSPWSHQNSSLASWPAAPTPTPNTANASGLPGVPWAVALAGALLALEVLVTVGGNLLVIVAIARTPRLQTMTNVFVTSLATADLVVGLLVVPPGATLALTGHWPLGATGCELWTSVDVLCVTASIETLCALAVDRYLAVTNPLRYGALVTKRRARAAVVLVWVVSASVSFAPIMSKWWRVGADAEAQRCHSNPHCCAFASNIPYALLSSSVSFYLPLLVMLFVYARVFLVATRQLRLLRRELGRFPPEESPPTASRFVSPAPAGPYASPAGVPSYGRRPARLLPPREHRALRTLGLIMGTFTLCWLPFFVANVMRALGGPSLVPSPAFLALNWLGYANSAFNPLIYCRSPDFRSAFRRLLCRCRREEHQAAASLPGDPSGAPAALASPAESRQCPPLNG

Structure (SMILES) | EC50 (β1-adrenoceptor) [µM] | EC50 (β2-adrenoceptor) [µM] | EC50 (β3-adrenoceptor) [µM] | death of animals in acute toxicity test (male ICR rats; male ICR rats of 4 weeks age, intravenous, 400 mg/kg, during 24 hours after administration, 400 mg/kg) | death of animals in acute toxicity test (male ICR rats; male ICR rats of 4 weeks age, intravenous, 400 mg/kg, during 24 hours after administration; 400 mg/kg))
C[C@H](Cc1ccc(OCC(=O)O)cc1)NC[C@H](O)c1cccc(Cl)c1 [BRL-37344, reference compound] | 0.27 | 0.009 | 0.0016 |  | 
CCOC(=O)C(C)(C)Oc1ccc(CCN[C@@H](C)[C@H](O)c2ccc(O)cc2)c(Cl)c1 [Compound 7, Ethyl 2-[3-chloro-4-[2-[[(1S,2R)-2-hydroxy-2-(4-hydroxy-phenyl)-1-methylethyl]amino]ethyl]phenoxy]-2-methyl-propionate hydrochloride] | 0.3 | 0.045 |  |  | 
C[C@H](NCCc1ccc(OC(C)(C)C(=O)O)cc1Cl)[C@H](O)c1ccc(O)cc1 [Compound 9, 2-[3-Chloro-4-[2-[[(1S,2R)-2-hydroxy-2-(4--hydroxyphenyl)-1-methylethyl]amino]ethyl]phenoxy]-2-methylpropionic acid] | 35 | 3.1 |  | no death was observed | No death of animals was observed
C[C@H](NCCc1ccc(OC(C)(C)C(=O)O)cc1)[C@H](O)c1ccc(O)cc1 [Compound 10, 2-[4-[2-[[(1S,2R)-2-Hydroxy-2-(4-hydroxyphenyl)-1-methyl-ethyl]amino]ethyl]phenoxy]-2-methylpropionic acid] |  | 3.9 |  |  | 
C[C@H](NCCc1ccc(OC(C)(C)C(=O)O)c(Cl)c1)[C@H](O)c1ccc(O)cc1 [Compound 11, 2-[2-Chloro-4-[2-[[(1S,2R)-2-hydroxy-2-(4-hydroxyphenyl)-1-methylethyl]amino]ethyl]phenoxy]-2-methylpropionic acid] | > 100 | 38 |  |  | 
Cc1cc(CCN[C@@H](C)[C@H](O)c2ccc(O)cc2)ccc1OC(C)(C)C(=O)O [Compound 12] | > 100 | > 100 |  |  | 
C[C@H](NCCc1ccc(NC(C)(C)C(=O)O)cc1)[C@H](O)c1ccc(O)cc1 [Compound 13, 2-[[4-[2-[[(1S,2R)-2-Hydroxy-2-(4-hydroxyphenyl)-1-methyl-ethyl]amino]ethyl]phenyl]amino]-2-methylpropionic acid] | 39 | 11 |  |  | 
C[C@H](NCCc1ccc(NC(C)(C)C(=O)O)cc1Cl)[C@H](O)c1ccc(O)cc1 [Compound 14, 2-[[3-Chloro-4-[2-[[(1S,2R)-2-hydroxy-2-(4-hydroxyphenyl)-1-methylethyl]amino]ethyl]phenyl]amino]-2-methylpropionic acid] | 2.2 | 1.4 |  |  | 
